Values joined by “and” are separate entries in the source; they are usually repeats but may differ in a detail not shown here. Equal values may be shown once.
Tested on: 922993-354-T-J3-PDC complex spheroid viability
Assay: Anticancer human tumor 922993-354-T-J3-PDC patient-derived endometrial carcinoma cell line growth inhibition [POLQ]
Settings: for viability, T/C: stronger effect = lower value
Method: Multicellular complex tumor spheroid response to Polymerase (POL) inhibitors (novobiocin, ART-558, RP6685) in combination with a variety of drugs and investigational agents in selected tumor cell lines
The POL inhibitors (novobiocin, ART-558, and RP6685) were evaluated both individually and in combination with standard of care and investigational anticancer small molecules within a complex spheroid model of solid tumors. . Complex spheroids include a stromal component modeled by human endothelial cells (HUVEC) and fibroblasts modeled by human mesenchymal stem cells (MSCs). The concentration ranges selected for each drug and investigational agent were based upon clinically achievable concentrations if the clinical Cmax of the agent was known.
Compounds. The drugs and investigational agents: novobiocin (NSC847541), ART-558 (NSC835418), RP-6685 (NSC848927), peposertib (NSC802822), ceralasertib (NSC780249), elimusertib (NSC800525), camonsertib (NSC841442), AZD-1390 (NSC803789), olaparib (NSC753686), talazoparib (NSC767125), rucaparib (NSC756644), sotorasib (NSC818433), MRTX-1133 (NSC836407), SN-38 (NSC673596), topotecan (NSC609699), epotoside (NSC141540), doxorubicin (NSC123127), gemcitabine (NSC613327), 5-fluorouracil (NSC19893), paclitaxel (NSC125973), vemurafenib (NSC761431), MSA-2 (NSC828583), SN-011 (NSC837082), adavosertib (NSC754352), prexasertib (NSC758257), carboplatin (NSC241240) and oxaliplatin (NSC266046), were obtained from the National Cancer Institute (NCI) Developmental Therapeutics Program Chemical Repository (21). The FDA-approved anticancer drug set is available from the Developmental Therapeutics Program at https://dtp.cancer.gov/organization/dscb/obtaining/. […] The stock solutions were prepared in dimethyl sulfoxide (DMSO, Sigma-Aldrich, St. Louis, MO, cat. D2650), except for the platinum compounds which were prepared in saline (Quality Biological, Gaithersburg, MD, cat. 114-055-101), at 800-fold the tested concentration and stored at -70 degrees C prior to their use. All drugs and investigational agents were tested over a range starting from a high concentration at or near the clinical Cmax and decreasing in half-log increments. If the clinical Cmax for an agent had not been determined, the highest concentration tested was 10 microM, except for SN-38, which was tested at a high concentration of 1 microM.
Cell Culture. All cells were maintained in an incubator at 37 degrees C and 5% CO2 with 95% humidity. The PDC lines were cultured according to standard operating procedures established by the NCI PDMR (https://pdmr.cancer.gov). Table 3 of the manuscript, lists the cell lines along with the number of the three cell types plated to form the mct-spheroids and media for tumor cell growth. After thawing, all PDC lines, except 997537-175-T-J1-PDC and 415267-285-R-J2-PDC, were cultured in Matrigel-coated flasks prepared with a working solution of 1X Ham's F-12 nutrient mix, without supplementation (Thermo Fisher Scientific, cat. 11765054), 100 U/mL penicillin-streptomycin (Thermo Fisher Scientific, cat. 15140122), and 2.5% Matrigel (Corning Inc., Corning, NY, cat. 354248) for the first three passages. The two PDC lines 997537-175-T-J1-PDC and 415267-285-R-J2-PDC were cultured on uncoated flasks. The 857933-349-R-J2-PDC line was cultured in 6C/Colon 1B media containing advanced DMEM/F-12 (Thermo Fisher Scientific, cat. 12634028), 10 mM HEPES (Thermo Fisher Scientific, cat. 15630080), 1X GlutaMAX supplement (Thermo Fisher Scientific, cat. 35050061), 0.1 mg/mL primocin (InvivoGen, San Diego, CA, cat. ant-pm-2), 10% defined fetal bovine serum, heat inactivated (HyClone Laboratories Inc., Logan, UT, cat. SH30070.03HI), 50% L-WRN conditioned media (ATCC, cat. CRL-3276), 1.25 mM N-Acetyl-L-cysteine (Sigma-Aldrich, cat. A9165), 10 mM nicotinamide (Sigma-Aldrich, cat. N0636), 1X B-27 supplement (Thermo Fisher Scientific, cat. 17504044), 1X N-2 supplement (Thermo Fisher Scientific, cat. […]

[1] = compound alone, run of 11/06/2023
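Note: spheroids exposed to the agents for one week.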
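Throughout, for viability, T/C: 100% = DMSO vehicle control wells.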

| Compound | viability, T/C (compound 0.0316 µM) | viability, T/C (compound 0.1 µM) | viability, T/C (compound 0.316 µM) | viability, T/C (compound 1 µM) | viability, T/C (compound 3.16 µM) | viability, T/C (compound 10 µM) | IC50 (compound alone, run of 10/31/2023) [µM] | IC50 [1] [µM] | viability, T/C (compound 0.000316 µM) | viability, T/C (compound 0.001 µM) | viability, T/C (compound 0.00316 µM) | viability, T/C (compound 0.01 µM) | IC50 (curve of compound) |
| --- | --- | --- | --- | --- | --- | --- | --- | --- | --- | --- | --- | --- | --- |
| Cc1cccc(N(C)C(=O)C2C(O)CCN2c2nc(C)cc(C(F)(F)F)c2C#N)c1 (stereo not given) | 102% [middle of 13 runs] | 101% [middle of 13 runs] | 103% [middle of 13 runs] | 103% [middle of 13 runs] | 103% [middle of 13 runs] | 105% [middle of 13 runs] | > 10 | > 10 | – | – | – | – | – |
| Cn1ncnc1[C@H]1c2n[nH]c(=O)c3cc(F)cc(c23)N[C@@H]1c1ccc(F)cc1 | 94.3% and 98.1% and 96.2% | 79.3% and 83.4% and 61% | – | – | – | – | – | – | 93.8% and 97.3% and 106% | 88.3% and 96.2% and 93.8% | 94% and 101% and 93.7% | 103% and 100% and 109% | > 0.1 µM |
| Nc1ccc(C#CCN(C(=O)Cc2ncc(C(F)(F)F)cc2C(F)(F)F)c2ccc(F)cc2)nn1 | 103% [middle of 13 runs] | 102% [middle of 12 runs] | 102% [middle of 13 runs] | 101% [middle of 13 runs] | 101% [middle of 13 runs] | 98% [middle of 13 runs] | – | > 10 | – | – | – | – | – |
| Nc1ccn(C2OC(CO)C(O)C2(F)F)c(=O)n1 (stereo not given) | 13.5% and 24% and 10.2% | 9.54% and 19.8% and 10.8% | 11.1% and 19.8% and 8.64% | 12.2% and 17.1% and 9.88% | 9.68% and 23.8% and 9.1% | 8.4% and 22.9% and 7.7% | – | – | – | – | – | – | < 0.0316 µM |
| O=C(Nc1ccc(O)c(NS(=O)(=O)c2ccc(F)cc2)c1)c1ccc(-c2ccccc2)cc1 | 108% and 103% and 104% | 106% and 103% and 91.7% | 104% and 99.2% and 89.1% | 99.6% and 101% and 99.3% | 108% and 105% and 96.4% | 112% and 101% and 90.3% | – | – | – | – | – | – | > 10 µM |
| O=C(c1cc(Cc2n[nH]c(=O)c3ccccc23)ccc1F)N1CCN(C(=O)C2CC2)CC1 | 107% and 111% and 103% | 100% and 97.4% and 101% | 95.3% and 93.3% and 102% | 106% and 94% and 101% | 92% and 94% and 104% | 96.9% and 99.4% and 94.8% | – | – | – | – | – | – | > 10 µM |
| O=c1[nH]cc(F)c(=O)[nH]1 | 92.3% and 104% and 112% | 105% and 101% and 99.1% | 95% and 101% and 95.6% | 101% and 105% and 99.3% | 30.5% and 79.5% and 27.9% | 14.8% and 24.6% and 17.6% | – | – | – | – | – | – | 2.27 µM and 5.89 µM and 2.21 µM |

From PubChem BioAssay AID1963830 (Molecular Pharmacology Branch, DTP, NCI, 2024)
